Measurements published in ChEMBL document CHEMBL1151356, “An investigation of the antitumor activity of Sesbania drummondii” (1981).
Calls of active or inactive are those of the source. The calls are words filed in the database; no cut-off is given here.

System: P388
Assay: In vivo cytotoxicity against mouse P388 cells up to 1.4 mg/kg relative to control
Type: functional, organism-based
Parameters: dose 1.4 mg/kg

O=C1NC(=O)[C@@]2(CC[C@@H](O)C2)c2ccncc21
Activity: inactive
